Data: patent US20070243262A1, “Stable S-nitrosothiol formulations” (priority 2005, published 2007)

Key:
[1] = cited from earlier work
[2] = GSNO API (powder) stability by HPLC; assay type: physicochemical; conditions: for GSNO % w/w at 5° C. / GSNO % w/w at −20° C. / GSNO % w/w at −80° C.: GSNO powder, HPLC
Experimental: GSNO powder was tested for stability at various temperatures over a three-month period of time, and each formulation was tested for stability at various temperatures over a six month period of time. Stability was determined by HPLC analysis at various times throughout the test period.

In the case of `N[C@@H](CCC(=O)N[C@@H](CSN=O)C(=O)NCC(=O)O)C(=O)O` [GSNO, S-nitrosoglutathione], the “stability in aqueous solutions” value [1] is listed as “decomposing in hours”, the “GSNO % w/w at 5° C.” value ([2]; 0 elapsed days) is listed as 92.7 % w/w and the “GSNO % w/w at 5° C.” value ([2]; 14 elapsed days) is listed as 84.6 % w/w. The “GSNO % w/w at 5° C.” value ([2]; 30 elapsed days) was 89.2 % w/w, the “GSNO % w/w at 5° C.” value ([2]; 90 elapsed days) was 80.0 % w/w and the “GSNO % w/w at −20° C.” value ([2]; 0 elapsed days) was 92.7 % w/w. The “GSNO % w/w at −20° C.” value ([2]; 14 elapsed days) was 90.6 % w/w, the “GSNO % w/w at −20° C.” value ([2]; 30 elapsed days) was 91.1 % w/w and the “GSNO % w/w at −20° C.” value ([2]; 90 elapsed days) was 89.7 % w/w. For the same compound, the “GSNO % w/w at −80° C.” value ([2]; 0 elapsed days) was 92.7 % w/w, the “GSNO % w/w at −80° C.” value ([2]; 30 elapsed days) was 91.4 % w/w and the “GSNO % w/w at −80° C.” value ([2]; 90 elapsed days) was 91.9 % w/w. The “stability of GSNO powder (in words)” value ([2]; temperatures above 0° C.) was “rapidly degrades”.
